melting point [°C] | SMILES
157 to 159 | Cc1cc(C(=O)OC2CC3C(=O)NC4(C(=O)NS(=O)(=O)C5CC5)CC4C=CCCCCCC(NC(=O)OC(C)(C)C)C(=O)N3C2)no1 (configuration not stated)
166 to 167 | Nc1ccc(-c2ccnc(-c3ccc(C(F)(F)F)cc3)n2)cc1
105 to 110 | CCCCCCC(C(=O)O)N1NCc2cc(-c3ccccc3-c3nn[nH]n3)ccc21 (configuration not stated)
236 to 242 | CCn1c(=N)c(-c2ccc3ccccc3c2)cc2cnc(Nc3ccccc3)nc21
72 | COc1cc(C(=O)OCc2ccccc2)ccc1S(=O)(=O)Cl
77 to 78 | CC(=O)N1CCC(CCCC(=O)c2ccc(F)cc2)CC1
196 to 201 | CC(C)(CN)Nc1ncc2ncnc(Nc3ccc(F)c(Cl)c3)c2n1
184 to 189 | CN1CCN2c3ccccc3Cn3c(c(CO)c4ccccc43)C2C1 (configuration not stated)
87 to 88 | CCOC(=O)c1ccc(NCCCOc2ccc(Cl)cc2)cc1
202 to 205 | O=C(OCC(Cl)(Cl)Cl)N1CCC(C2c3cccc4c3N(CC4)c3ccccc3N2C(=O)OCC(Cl)(Cl)Cl)CC1 (configuration not stated)
104 to 105 | COc1ccc2c(c1)c(Cc1cc(=O)n(-c3cc(Cl)cc(Cl)c3)[nH]1)c(C)n2C(=O)c1ccc(Cl)cc1
213 to 216 | NS(=O)(=O)c1ccc(-c2cnn(-c3ccc(F)cc3)c(=O)c2-c2ccc(F)cc2)cc1
83 to 84 | N#CC(CCc1ccc(Cl)cc1)(c1ccccc1)c1cccnc1 (configuration not stated)
51 to 53 | COc1ccc(OCC#CCCC(N)N2C(=O)c3ccccc3C2=O)cc1 (configuration not stated)
239 to 241 | Nc1nc(-c2ccncc2)nc2c1c([N+](=O)[O-])nn2C1CCCC1
100 to 101 | CC(=O)Oc1ccc(C=C2CCCc3cc(C)cnc32)cc1OC(C)=O
225 to 226 | Cc1ccc(-c2nn3cccnc3c2CC(N)=O)cc1
190 to 191 | COc1ccnc(CSc2nc3c(C)c(OC(F)F)c(C)cc3[nH]2)c1C
106 to 115 | O=[N+]([O-])c1cnn(-c2c(Cl)cc(Cl)cc2Cl)c1O
175 to 178 | CCOC(=O)C1=C(C)NC(c2csc(C)n2)=NC1c1cccc(O)c1 (configuration not stated)
149 to 151 | Cc1sc2ncc(C(O)C=Cc3ccccc3)n2c1C (configuration not stated)
110 to 112 | Cc1cccc(C(F)(F)C(F)(F)c2ccccc2)c1C
90 | CC(=O)N1CC(Cc2ccccc2)OC1=O (configuration not stated)
146 to 147 | Cc1nc[nH]c1CSCCN=C(NC#N)NCCO
305 to 307 | CCn1c(=O)c(-c2cc(OC)cc(OC)c2)cc2cnc(Nc3ccncc3)nc21

melting point [°C] | SMILES
68 | CCCC(Nc1ccc(OCc2ccccc2)cc1)C(=O)OCC (configuration not stated)
182 to 184 | CC(C)c1nc(C(O)(C(F)(F)F)C(F)(F)F)[nH]c1-c1ccc(S(C)(=O)=O)cc1
36 to 38 | C#Cc1cccc(C(=O)OCC)c1
134 to 136 | O=[N+]([O-])c1ccc(Sc2ccc(Cl)cc2)nc1
233 to 235 | Cc1nc(N2CCN(Cc3ccncc3)C2=O)sc1C(=O)NCc1cccnc1
97 to 98 | CCOC(=O)COc1cc(C)nc2c(O)cccc12
167 to 170 | Oc1ccc(-c2cc3cc(O)ccc3o2)c(-c2ccccc2)c1
43 to 45 | CCc1ncc(CCCOc2c(C)cc(-c3noc(C)n3)cc2C)s1
155 | O=C1CCC2=C1C(Cc1ccccc1)(Cc1ccccc1)c1ccccc12
120 | CC(=O)Nc1ccc(OCCCBr)cc1
80 | Cc1cc(-n2ccnc2)c2cccc(OCc3c(Cl)ccc(S(=O)(=O)N4CCC[C@H]4C(=O)N(C)CCCN(C)C)c3Cl)c2n1
286 to 287 | Cn1cncc1S(=O)(=O)O
146 to 148 | C#CCNC(=NCCSCc1csc(NC(=N)N)n1)NC#N
208 to 210 | CCOCc1nc2c(N)nc3ccccc3c2n1CCCNS(C)(=O)=O
229 to 231 | CSc1nc(=O)c2cccc3c2n1-c1cc(C(F)(F)F)ccc1S3
89 to 95 | Cc1ccc(S(=O)(=O)NC(=O)OCCc2ccc(-n3c(CCC(=O)c4cccnc4)nc4cc(C(F)(F)F)c(Cl)cc43)cc2)cc1
123 to 124 | CC(C)(C)COc1c(-c2ccc(S(N)(=O)=O)cc2)cnn(CC(F)(F)F)c1=O
85 to 86 | CCCC[C@@H](NC(=O)OC(C)(C)C)C(=O)NCC(=O)OCc1ccccc1
93 to 94 | CCCCCCCCCCCCCCCCCCCCC(COC(C)=O)(COC(C)=O)NC(C)=O
99 to 100 | C[C@@H]1C(=O)c2ccccc2O[C@H]1c1ccccc1 (relative stereo)
156 to 158 | Cc1ccc2occ(C3CCN(CCc4cc5c(s4)CCCC(=O)N5)CC3)c2c1
187 to 189 | CCCCc1nc2c(N)nc3cc(-c4ccc(OC)cc4OC)ccc3c2n1CC(C)C
177 | CC1Cc2cc(F)ccc2C1=Cc1ccc(S(C)(=O)=O)cc1 (configuration not stated)
250 to 252 | COc1ccc(-c2c(Cl)c(CN3C(=O)CCC3=O)nc3sc4c(c23)CCN(C(=O)C(F)(F)F)C4)cc1
153 to 156 | O=C(O)c1ccc(OCC2CCCC2Nc2ccc(Cl)cc2)cc1 (configuration not stated)

melting point [°C] | SMILES
95 to 96 | Cc1ccc(C)c(C2CC(=O)c3c(C)ccnc3C2)c1 (configuration not stated)
148 to 150 | CC(=O)Nc1nc(CCc2ccc(CBr)cc2)cs1
69 to 70 | Cc1ccc2c(c1)Sc1cc(C)ccc1O2
79 to 81 | CCOC(=O)c1cnn(-c2ccc(Cl)cc2Cl)c1C#N
196 | Cc1sc2cc(C3=NCC4(CCNCC4)S3)[nH]c2c1N(C)S(=O)(=O)c1cccs1
91 to 93 | Cc1ccncc1NC(=O)OC(C)(C)C
188 | Clc1ccc2nc(-n3cccn3)nnc2c1
84 to 87 | COC(=O)C(C)(C)OCc1cc2nc(Cl)ccc2n1S(=O)(=O)c1ccccc1
131 to 135 | COc1ccc(-c2nc(C)c(-c3cccnc3)n2O)cc1OC
195 to 197 | COc1cn(-c2ccncc2)nc(-c2ccnn2-c2ccccc2)c1=O
80.1 | O=[N+]([O-])c1cc(C(F)(F)F)ccc1NC1CCCCC1
182 to 184 | O=C(O)CCn1ccn([C@H]2CCc3c(F)cc(F)cc3C2)c1=S
206 to 208 | O=C(O)CCN1C(=O)c2ccc([N+](=O)[O-])cc2C1=O
230 to 231 | COC(=O)c1cccc2c1CC(c1csc(-c3ccncc3)n1)C(=O)N2 (configuration not stated)
255 to 257 | CCc1cc2c(=O)n3cc(C(=O)O)ccc3nc2s1
157 to 158 | CCOC(=O)c1c(CSc2nccn2CC)nc2cc(OC)c(OC)cc2c1-c1ccc(OC)c(OC)c1
105 to 106 | CCN(CC)C(=O)C1=C(C(=O)Nc2ccc(Cl)cc2F)CCCC1
78 to 79 | CCCCCCCCCCCCCCCCNC(=O)NCCCN(C)C
205 to 206 | CCn1cc(C)c(=S)[nH]c1=O
104 to 108 | COc1ccnc(CSc2nc3cc(OC(F)F)ccc3[nH]2)c1OC
60 to 61 | O=C(O)CCCc1ccc(-c2ccccc2Cl)cc1
216 | N#Cc1cccc(C2=NN(C(=O)Nc3ccc(OC(F)(F)F)cc3)CCC2n2cc(Cl)cn2)c1 (configuration not stated)
225 to 228 | O=C(O)Cc1c(C(=O)C2CCC2)[nH]c2cc(Cl)ccc12
102 to 104 | Nc1cn(C2OC(CO)C(O)C2O)nn1 (configuration not stated)
> 230 | CNc1nc(-c2ccc(-c3ccccc3)cc2)c(C(=O)OC)s1

melting point [°C] | SMILES
193 to 194 | CC(CO)n1cnc2c(I)ncnc21 (configuration not stated)
144 to 145 | Cc1ccccc1-c1cc(N2CCOCC2)ncc1C(N)=O
223 to 228 | CN(C)c1cccc(-c2cnc3[nH]cc(C(=O)C(C)(C)C)c3n2)c1
244 | O=C(C=Cc1ccccc1)Nc1ccc(C(c2ccc(Cl)cc2)n2ccnc2)cc1 (configuration not stated)
140 to 143 | S=C(Nc1ccc(Cl)cc1)Nc1ncccc1OCc1ccccc1
> 250 | CC(C)(C)OC(=O)Nc1cc(CO)c(I)cc1[N+](=O)[O-]
171 to 174 | CC1(C)Oc2cc([N+](=O)[O-])c(NC(=O)Cc3ccc(-c4ccccc4)cc3)cc2C2OC21 (configuration not stated)
188 to 193 | OC1COc2ccccc2C1 (configuration not stated)
150 to 152 | O=C(O)C1(c2ccc(I)cc2)CC1
189 to 192 | N#Cc1ccc(CN2CCC(N3C(=O)Nc4ccccc4C3c3ccccc3)CC2)cc1 (configuration not stated)
133 to 134 | CC(C(=O)O)c1cccc2c1Oc1ccccc1CC2 (configuration not stated)
258 to 261 | Cc1csc2[nH]c(=O)nc(-c3ccccc3F)c12
137 to 140 | CCN(CC)C(=O)c1ccc2ccccc2c1-c1ccccc1F
128 to 130 | CCCC(=O)c1ccc(C(=O)O)cn1
56 to 58 | Clc1ncnc2c1ncn2C1CC=CC1
53 to 55 | CCOC(=O)CSc1nc(-c2ccccc2)c(-c2ccccc2)o1
220 to 223 | Cc1cc(C(C)C)c(S(C)(=O)=O)cc1C(=O)N=C(N)N
290 | CCOC(=O)c1n[nH]c2c(=O)[nH]c3cc(Cl)ccc3c(=O)c12
136 to 138 | CC(C)OC(=O)c1cc(-n2c(=O)c3c(n(C)c2=O)CCCC3)ccc1Cl
130 to 135 | OC(c1ccccc1)c1cccnn1 (configuration not stated)
50 to 51 | CCCCCCCCCCC[C@H](CC(=O)N[C@@H](CO)C(=O)OCc1ccccc1)OC(=O)CCCCCCC
182 to 184 | O=C(Nc1ccc(OCc2ccncc2)c2ccccc12)c1cc(F)cc(OC2CCOCC2)c1
77 to 78 | COc1ccc(CN2N=C(c3ccc(OC)c(OC)c3)[C@@H]3CCCC[C@@H]3C2=O)cc1 (relative stereo)

SMILES | melting point [°C]
Cc1nc2n(c1CN(C)C)-c1ccc(Cl)cc1C(c1ccccc1Cl)=NC2 | 191 to 194
Nc1ccccc1C(=O)OCCN1CCN(c2cccc(Cl)c2)CC1 | 76
CC(=O)NNCC1CC2c3cccc4c3c(cn4C)CC2N(C)C1 (configuration not stated) | 190 to 192
CN(C)Cc1nc(C=Cc2nc3ccc(F)cc3c(=O)n2-c2ccccc2F)cs1 | 163 to 165
